Melting point data for 89 compounds are collected here from a melting point compilation (Tetko et al.; mined from patent text by program, amines drawn as free bases though some values may be those of a salt).

On to `Cc1c(Br)c2c(c(C)c1NC(=O)OC(C)(C)C)C(O)C(C)(C)O2` (centres undefined), for which the melting point was in the range of 187 to 188 °C.

`O=CNCc1cc(C(O)CNCCCCCCOCCCCc2ccccc2)ccc1O` (centres undefined): the melting point is 76 to 77 °C.

The compound `Cn1c(C(=O)O)cc2c(OCc3ccccc3)cccc21` returned a melting point of 217 °C.

With `CN1CCN(c2ccccc2C=CC(=O)Nc2ccc(C(F)(F)F)cc2)CC1`, the melting point lay in the range of 207 to 209 °C.

Turning to `Cc1cccc(NC(=O)NC(C(=O)O)C(C)C)c1` (racemic), the melting point was determined as 170 °C.

`NC(=O)CC1(c2ccccc2)C(=O)Nc2ccc(Cl)cc21` (centres undefined) yielded a melting point of 247 to 248 °C.

For `CCCCc1nc(Cl)c(C(=O)OCC)n1Cc1ccc2oc(-c3ccccc3NS(=O)(=O)C(F)(F)F)c(Br)c2c1`, the melting point was in the range of 158 to 159 °C.

The compound `Cc1cc(C)c(C(=O)Oc2ccccc2)c(O)c1C` had a melting point of 74 °C.

`CC#Cc1cc(Cl)nc(Nc2ccccc2)n1` displayed a melting point of 121 to 124 °C.

On to `CC1(C)OC(=S)Nc2ccc(-c3cc(C#N)cs3)cc21`, for which the melting point was 258 to 259 °C.

Turning to `O=C(Nc1cc(Br)cc(C(F)(F)F)c1)Oc1ccc([N+](=O)[O-])cc1`, the melting point was 140 to 142 °C.

For `COc1cc2c(cc1OCc1ccccc1)CCCN(Cc1cc(OC)c(OC)c(OC)c1)C2=O`, the melting point was 134 to 135 °C.

The compound `CCCCCCCCCCOc1ccc(-c2nc(-c3c(Cl)cccc3Cl)nn2C)cc1` showed a melting point of 60 to 64 °C.

Consider `CCCCc1ccc2nc(Cl)cn2n1`, for which the melting point is 61 to 63 °C.

Compound `COc1ccc2c3ccc(OC)cc3n(-c3ccccc3OC)c2c1` returned a melting point of 148 °C.

Compound `CN(C(CCn1c(=O)[nH]c2cscc2c1=O)C(=O)NO)S(=O)(=O)c1ccc(Oc2ccccc2)cc1` (centres undefined) had a melting point of 135 to 137 °C.

Compound `CC(=O)OC1CSC(Sc2ccc(-c3ccc(C#N)cc3)cc2)C(OC(C)=O)C1OC(C)=O` (centres undefined) showed a melting point of 150 °C.

In turn, `Nc1cc(Br)c(Br)cc1[N+](=O)[O-]` registered a melting point of 198 to 199 °C.

As to `O=C(NCCOc1ccc(-c2ccccc2)cc1)N[C@@H](Cc1ccccc1)C(=O)O`, the melting point worked out at 175 °C.

Compound `Cc1noc(NS(=O)(=O)c2ccsc2COc2ccc3c(c2Cl)OCO3)c1Br` had a melting point of 152 to 154 °C.

In the case of `CCN1CCN(c2cccc3c2CC(NC(=O)c2ccc(N4CCOCC4)cc2)CC3)CC1` (centres undefined), the melting point was in the range of 204 to 206 °C.

In the case of `COc1ccc(-c2cnc3cc4cnn(C[C@@H](O)CO)c4cc3n2)cc1F`, the melting point was in the range of 228 to 234 °C.

`CCOCCCOc1ccc(-c2ccc3c(c2)C=C(C(=O)OC)CCN3C=O)cc1` registered a melting point of 112 to 113 °C.

Consider `O=C(NC1CC1c1ccccc1)C1Cc2ccccc2N1S(=O)(=O)c1ccc(-c2ccc(F)cc2)cc1` (centres undefined), for which the melting point stood at 80 °C.

On to `CCCN(CCC)C1Cc2cccc(C(N)=O)c2NC1=O` (centres undefined), for which the melting point lay in the range of 214 to 217 °C.

Compound `COc1ccc(N(c2ccccc2)c2ccc(-c3ccc(-c4ccc(N(c5ccccc5)c5ccc(OC)cc5C)cc4)cc3)cc2)c(C)c1` returned a melting point of 181 to 183 °C.

Take `CCOC(=O)CCC(=O)c1cnc2c(OC)cccc2c1NCc1ccccc1`: the melting point lay in the range of 201 to 202 °C.

As to `CC(CO)c1ccc(-c2ccc(F)cc2F)c(F)c1` (centres undefined), the melting point lay in the range of 58 to 59 °C.

Compound `COC(=O)ON=C1C(=O)c2ccccc2-c2ccccc21` registered a melting point of 142 to 143 °C.

For the compound `COC(=O)N1C(C(=O)O)CSC1c1ccccc1` (centres undefined), the melting point fell in the range of 129 to 130 °C.

With `O=C(O)CCc1ccccc1OCCC(c1ccccc1)(c1ccccc1)c1ccccc1`, the melting point was 118 to 120 °C.

As to `CCCCCCCC(=O)Nc1ccc([N+](=O)[O-])cc1`, the melting point fell in the range of 80.9 to 81.6 °C.

In turn, `CN(C)S(=O)(=O)c1ccccc1S(=O)(=O)NC(=O)Nc1nc(F)cc(OC(F)(F)F)n1` showed a melting point of 167 to 169 °C.

Take `COC(=O)c1cc2c([nH]c1=O)CCCCCC2`: the melting point is 220 to 224 °C.

As for `CCCC[C@H](NC(=O)[C@H](CC(C)C)NC(=O)c1ccc(F)cc1F)C(=O)CSCc1ccco1`, the melting point is 97 to 98 °C.

Turning to `FC(F)(F)c1nnc2c3cc4c(cc3ccn12)OCO4`, the melting point was in the range of 187 to 189 °C.

On to `CCc1nc2cccc(C)c2c(=O)n1C1CCC(=O)NC1=O` (centres undefined), for which the melting point is 228 to 230 °C.

`CC#CCn1c(Cl)nc2c1c(=O)n(C)c(=O)n2C` came in with a melting point of 105 to 108 °C.

On to `CCC(=O)N(CCc1ccccc1)C1CCc2c(cccc2NC(C)=O)C1` (centres undefined), for which the melting point was 143 to 145 °C.

Compound `Brc1ccc2c(c1)-c1nc(-c3ccccc3)sc1CC2` had a melting point of 85 °C.

In turn, `O=C1c2cccc([N+](=O)[O-])c2C2CC(O)CCN12` (centres undefined) displayed a melting point greater than 260 °C.

Regarding `C=CC12CCC3(C)C(F)C(O)CC3C1CCc1cc(O)ccc12` (centres undefined), the melting point fell in the range of 94 to 98 °C.

With `CCCCN(CCCC)CCCCOc1ccc(S(=O)(=O)c2c(C(C)C)cn3ccccc23)cc1`, the melting point amounted to 96 °C.

In the case of `CC(C)On1c(C(C)(C)C)nc2c(N)nc3ccccc3c21`, the melting point was in the range of 187 to 189 °C.

Turning to `CCOCC1=C(C(=O)OCC)C(c2ccccc2)C(C(=O)OCC)=C(C)N1` (centres undefined), the melting point came out at 112 °C.

On to `CNc1nc(-c2cccc(NC(=O)c3ccc(N4CCCC4)nc3)c2)c2cc(OC)c(OC)cc2n1`, for which the melting point was in the range of 239 to 241 °C.

On to `CCc1nc(-c2cccc(C)c2)c(-c2ccnc(NC(=O)C3CCCCC3)c2)s1`, for which the melting point lay within 98 to 100 °C.

`CCOc1ccc(C2SC(=N)NC2=N)cc1OCC` (centres undefined) displayed a melting point of 185 to 190 °C.

Take `CCCc1c(O)ccc2oc(C(=O)OCC)cc12`: the melting point lay within 99 to 101 °C.

`COc1cc(OCc2ccncc2)ccc1/C=C/c1cc(/C=C/c2ccc3[nH]ccc3c2)n[nH]1` displayed a melting point of 133 to 141 °C.

Take `COC(=O)C=Cc1cc(F)cc(Br)c1`: the melting point lay in the range of 95 to 96 °C.

Turning to `OCc1cc2ccccc2cc1CO`, the melting point lay in the range of 161 to 162 °C.

Compound `COCCCc1nnc(-c2ccc(-c3ccccc3)nc2)n1-c1cccc(C#N)c1C` yielded a melting point of 144 to 145 °C.

`O=[N+]([O-])c1ccc2c(c1)[nH]c1cc([N+](=O)[O-])ccc12` registered a melting point greater than 300 °C.

In turn, `C[C@@H]1C(=O)C[C@H]2C[C@@H]1OO[C@@]2(C)/C=C/c1c(F)c(F)c(F)c(F)c1F` registered a melting point of 128 °C.

In turn, `O=C1NC(=S)N/C1=C\c1c[nH]c2ncc(-c3ccccc3)cc12` returned a melting point of 265 to 270 °C.

For `CC(=O)COc1ccc2cc(S(N)(=O)=O)sc2c1`, the melting point is 181 to 185 °C.

In turn, `CNS(=O)(=O)c1cn(C)c2cc(Cl)c(F)cc2c1=O` gave a melting point of 235 to 236 °C.

`Cc1ccc(S(=O)(=O)OCCCC(O)c2cccc3c(=O)c(C)c(-c4ccccc4)oc23)cc1` (centres undefined) had a melting point of 123 to 124 °C.

In turn, `COc1ccc2c(c1)CC(C)C1C2CCC2(C)C(=O)CCC12` (centres undefined) showed a melting point of 167 to 170 °C.

`Cc1cc(OCC(F)(F)F)c(Cl)cc1[N+](=O)[O-]` returned a melting point of 76 to 79 °C.

`CCCc1c(OC(=S)N(C)C)ccc2c(C)c(CC(=O)OC)c(=O)oc12` gave a melting point of 172 to 173 °C.

In turn, `CCOC(=O)c1c(-c2ccc(F)cc2)cc(-c2ccccc2)n1C(C)C` registered a melting point of 97 to 100 °C.

Compound `CO/N=C(\C(=O)O)c1ccccc1COc1cc(C)ccc1C` showed a melting point of 112 to 114 °C.

In turn, `COc1ccc2c(c1)C(=O)C(n1ccnc1)CO2` (centres undefined) returned a melting point of 150 to 152 °C.

`CC(C)(C)OC(=O)NCCOc1noc2ccccc12` showed a melting point of 106 to 107 °C.

`C=CCC1(CC=C)c2cccc(Cl)c2C(=O)c2c(OC)cccc21` had a melting point of 151 to 153 °C.

As for `CN1CCC(C2Oc3cc(Cl)ccc3Cn3c(Cl)ccc32)CC1` (centres undefined), the melting point is 132 to 140 °C.

`O=C(N[C@@H]1CN(C2CCCCC2)C[C@H]1O)c1ccc(Cl)cc1` (relative stereo): the melting point lay in the range of 158 to 160 °C.

Regarding `O[C@H](CCc1cccnc1)COc1ccc(-c2cccc(F)c2)cc1`, the melting point is 61 to 62 °C.

`N#Cc1nn(-c2c(Cl)cc(C(F)(F)F)cc2Cl)c(N)c1-c1cccnc1` had a melting point of 265 to 267 °C.

As for `CCCc1cc(C(O)(CC)CC)ccc1-c1cc(OCc2ccc(CO)c(CO)c2)ccc1C`, the melting point came to 97 °C.

The compound `CCOC(=O)c1c(C(F)(F)F)nc(C(F)(F)F)c(C(=O)OCC)c1C` returned a melting point of 55 to 58 °C.

Take `Cc1c(C)c2c(c(C)c1N)C(c1ccc(C3OCCO3)cc1)CO2` (centres undefined): the melting point is 125 to 136 °C.

Turning to `O=C1c2ccccc2-c2[nH]nc(-c3ccc(Cl)cc3)c21`, the melting point is greater than 330 °C.

`Cc1nc2ccccc2n1CCCNCC(O)COc1ccc(CC(N)=O)cc1` (centres undefined) came in with a melting point of 146 to 149 °C.

For the compound `COc1ccc(/C=C/C(=O)N2CC(CCl)c3c2cc(O)c2ncccc32)cc1O` (centres undefined), the melting point lay within 215 to 218 °C.

`Nc1n[nH]c2ccc(Cl)cc12`: the melting point fell in the range of 162 to 163 °C.

The compound `COc1nsnc(Cl)c1=O` returned a melting point of 159 to 161 °C.

`O=C(Nc1cccc(Cl)c1)N1CCNC1=N[N+](=O)[O-]` displayed a melting point of 214 to 216 °C.

As to `Cc1ccc(Cn2c(=O)c3c(Cl)cc(Cl)cc3n(Cc3ccccc3)c2=O)cc1`, the melting point fell in the range of 166 to 169 °C.

`COc1cc(OC)c(F)c(N2Cc3cnc(SC)nc3N(C3CCCC3)C2=O)c1F` showed a melting point of 167 to 169 °C.

For the compound `CC(O)c1ccc(F)c(-c2ccc3nc(-c4ccc(Cl)cc4)cn3c2)c1` (centres undefined), the melting point was in the range of 180 to 182 °C.

`CC(C)(C)OC(=O)N1CCC(COc2ccc(N3CCCC3)cc2)CC1` gave a melting point of 141 to 145 °C.

Compound `COc1ccc([C@@H]2Sc3ccccc3N(CCN(C)C)C(=O)[C@@H]2OC(=O)Nc2cccc(F)c2)cc1` (relative stereo) returned a melting point of 111 to 113 °C.

`COc1ccc(-c2cnc3c(n2)c(C#N)cn3S(=O)(=O)c2ccc(C)cc2)cc1OC` had a melting point of 233 to 234 °C.

`CC1NC(=O)NN=C1c1ccc(NCCO)cc1` (centres undefined) returned a melting point of 182 to 185 °C.

As for `c1ccn(Nc2ccc(N3CCOCC3)nn2)c1`, the melting point was determined as 228 °C.

`CO[C@@H]1C[C@H]2[C@H](C(=O)O)[C@H]2[C@]1(N)C(=O)O` registered a melting point greater than 250 °C.
